What was measured:
Aspergillus niger = test: Agar diffusion antimicrobial test, Aspergillus niger; assay type: cell-based; details: Fungi, modified Kirby–Bauer disk diffusion, 10 µg/mL
Description: (§1) The newly synthesized compounds 3–12 were tested for their preliminary antimicrobial activity against different microorganisms representing Gram-positive (Bacillus subtilis, Bacillus aureus and Staphylococcus aureus), Gram-negative bacteria (Escherichia coli), yeast (Candida albican) and fungi (Aspergillus niger).
(§2) The antimicrobial activities of the synthesized compounds were determined by the agar diffusion method as recommended by the national committee for clinical laboratory standards (NCCLS). The concentrations of the tested compounds (10 µg/mL) were used according to modified Kirby–Bauer’s disk diffusion method. The degree of inhibition is measured in comparison with that of chloramphinicol and fusidic acid taken as standards.

Staphylococcus aureus = test: Agar diffusion antimicrobial test, Staphylococcus aureus; assay type: cell-based; details: Gram+ve, modified Kirby–Bauer disk diffusion, 10 µg/mL
Description: as §1, §2

Escherichia coli = test: Agar diffusion antimicrobial test, Escherichia coli; assay type: cell-based; details: Gram−ve, modified Kirby–Bauer disk diffusion, 10 µg/mL
Description: as §1, §2

Bacillus subtilis = test: Agar diffusion antimicrobial test, Bacillus subtilis; assay type: cell-based; details: Gram+ve, modified Kirby–Bauer disk diffusion, 10 µg/mL
Description: as §1, §2

Candida albicans = test: Agar diffusion antimicrobial test, Candida albicans; assay type: cell-based; details: Yeast, modified Kirby–Bauer disk diffusion, 10 µg/mL
Description: as §1, §2

Bacillus aureus = test: Agar diffusion antimicrobial test, Bacillus aureus; assay type: cell-based; details: Gram+ve, modified Kirby–Bauer disk diffusion, 10 µg/mL
Description: as §1, §2

[1] = test system: carrageenan-induced edema; test: Carrageenan-induced edema (rat paw test); assay type: in vivo; details: one hour before carrageenan, male albino rats, eight animals per group, paws excised four hours after drug administration
Description: (§3) For the determination of the antiphlogistic potency of the synthesized compounds, two standard tests were realized at a dose level 2.5 and 5 mg/kg body weight of the rats, namely the protection against carrageenan-induced edema according to Winter et al. and the inhibition of plasma PGE2. The latter is known as a good confirming indicator for carrageenan-induced rat paw edema. […] For these compounds, a similar activity profile was realized for the inhibition of plasma PGE2.
(§4) Groups of adult male albino rats (150–180 g), each of eight animals were orally dosed with tested compounds at a dose level of 2.5–5 mg/kg one hour before carrageenan challenge. Foot paw edema was induced by subplantar injection of 0.05 cm^3 of a 1% suspension of carrageenan in saline into the plantar tissue of one hind paw. An equal volume of saline was injected to the other hand paw and served as control. Four hours after drug administration the animals were decapitated, blood was collected, and the paws were rapidly excised. The average weight of edema was examined for the treated as well as the control group and the percentage inhibition of weight of edema was also evaluated. Diclofenac potassium (5 mg/kg) was employed as standard reference against which the tested compounds were compared (Table 2).

plasma PGE2 = test: Inhibition of plasma PGE2 (EIA) in carrageenan-challenged rats; assay type: in vivo, rat; details: rats n = 8, blood four hours after drug administration, PGE2 EIA kit
Description: as §3, §4
Heparinized blood samples were collected from rats (n = 8), plasma was separated by centrifugation at 12,000 g for 2 min at […], immediately frozen, and stored at […] until use. The design correlate EIA prostaglandin E2 (PGE2) kit (Aldrich, Steinheim, Germany) is a competitive immuno assay for the quantitative determination of PGE2 in biological fluids. The kit uses a monoclonal antibody to PGE2 to bind, in a competitive manner, the PGE2 in the sample after a simultaneous incubation at room temperature. The excess reagents were washed away and the substrate was added, after a short incubation time the enzyme reaction was stopped, and the yellow color generated was read on a microplate reader DYNATech, MR 5000 at 405 nm (Dynatech Industries Inc., McLean, VA, USA). The intensity of the bound yellow color is inversely proportional to the concentration of PGE2 in either standard or samples.

Compound	Inhibition Zome, Aspergillus niger (Aspergillus niger)	Inhibition Zome, Staphylococcus aureus (Staphylococcus aureus)	Inhibition Zome, Escherichia coli (Escherichia coli)	Inhibition Zome, Bacillus subtilis (Bacillus subtilis)	Inhibition Zome, Candida albicans (Candida albicans)	Inhibition Zome, Bacillus aureus (Bacillus aureus)	% Protection against Edema ([1]; dose 2.5 mg/kg oral)	% Protection against Edema ([1]; dose 5.0 mg/kg oral)	% Inhibition of Plasma PGE2 (plasma PGE2; dose 2.5 mg/kg oral)	% Inhibition of Plasma PGE2 (plasma PGE2; dose 5.0 mg/kg oral)
2,6-Bis {N-{(2R)-1-[2-(4-chlorobenzylidene)hydrazinyl]-4-methyl-1-oxopentan]-3-carboxamido}-pyridine [Compound 10e]	1.48 cm	1.80 cm	0.78 cm	1.65 cm	0.94 cm	1.96 cm	–	–	–	–
2,6-Bis {N-{(2R)-1-[2-(4-methoxybenzylidene)hydrazinyl]-4-methyl-1-oxopentan]-3-carboxamido}-pyridine [Compound 10c]	1.95 cm	1.64 cm	0.80 cm	1.76 cm	1.00 cm	1.56 cm	–	–	–	–
2,6-Bis {N-{(2R)-1-[2-(4-methylbenzylidene)hydrazinyl]-4-methyl-1-oxopentan]-3-carboxamido}-pyridine [Compound 10b]	1.56 cm	1.85 cm	0.78 cm	1.80 cm	0.95 cm	1.95 cm	–	–	–	–
2,6-Bis[(N-[4-methyl-1-(1H-benzo[de]isoquinoline-1,3(2H)-dion)-pentan]-3-carboxamido]pyridine [Compound 8]	2.00 cm	1.95 cm	0.90 cm	1.90 cm	0.98 cm	1.94 cm	78.88 ± 0.090%	92.00 ± 0.060%	57.57 ± 0.045%	76.00 ± 0.035%
CC(C)C[C@H](NC(=O)c1cncc(C(=O)N[C@@H](CC(C)C)C(=O)NN)c1)C(=O)NN [Compound 4, N^2,N^2′-(Pyridine-3,5-dicarbonyl)-di-L-leucyl hydrazide]	1.56 cm	1.80 cm	0.80 cm	1.85 cm	0.92 cm	1.92 cm	93.45 ± 0.074%	98.56 ± 0.060%	75.66 ± 0.040%	80.01 ± 0.058%
CC(C)C[C@H](NC(=O)c1cncc(C(=O)N[C@@H](CC(C)C)C(=O)NN2C(=O)c3ccccc3C2=O)c1)C(=O)NN1C(=O)c2ccccc2C1=O [Compound 7a]	1.64 cm	1.58 cm	0.75 cm	1.55 cm	1.02 cm	1.84 cm	97.45 ± 0.054%	98.86 ± 0.046%	81.30 ± 0.044%	82.48 ± 0.052%
C/C(=N\NC(=O)[C@H](CC(C)C)NC(=O)c1cncc(C(=O)N[C@@H](CC(C)C)C(=O)N/N=C(\C)c2ccc(Cl)cc2)c1)c1ccc(Cl)cc1 [Compound 9a]	2.01 cm	1.76 cm	0.92 cm	1.84 cm	1.10 cm	1.88 cm	82.16 ± 0.076%	93.16 ± 0.064%	58.96 ± 0.024%	74.58 ± 0.040%
COc1ccc(/C(C)=N/NC(=O)[C@H](CC(C)C)NC(=O)c2cncc(C(=O)N[C@@H](CC(C)C)C(=O)N/N=C(\C)c3ccc(OC)cc3)c2)cc1 [Compound 9b]	1.88 cm	1.72 cm	0.75 cm	1.60 cm	1.00 cm	1.74 cm	79.34 ± 0.081%	92.92 ± 0.090%	57.90 ± 0.040%	77.14 ± 0.052%
CC(C)C[C@H](NC(=O)c1cncc(C(=O)N[C@@H](CC(C)C)C(=O)N/N=C/c2ccccc2)c1)C(=O)N/N=C/c1ccccc1 [Compound 10a]	1.68 cm	1.56 cm	0.66 cm	1.56 cm	–	1.45 cm	90.32 ± 0.035%	99.10 ± 0.036%	62.12 ± 0.051%	83.01 ± 0.049%
CC(C)C[C@@H]1NC(=O)c2cncc(c2)C(=O)N[C@@H](CC(C)C)C(=O)NN2C(=O)c3ccc4c5c(ccc(c35)C2=O)C(=O)N(NC(=O)[C@H](CC(C)C)NC(=O)c2cncc(c2)C(=O)N[C@@H](CC(C)C)C(=O)NN2C(=O)c3ccc5c6c(ccc(c36)C2=O)C(=O)N(NC1=O)C5=O)C4=O [Compound 12]	1.58 cm	1.65 cm	0.64 cm	1.65 cm	–	1.83 cm	90.48 ± 0.090%	99.36 ± 0.080%	63.16 ± 0.036%	86.18 ± 0.071%
CC(=O)O[C@H]1C[C@@]2(C)[C@@H](C[C@@H](O)[C@H]3[C@@]4(C)CC[C@@H](O)[C@@H](C)[C@@H]4CC[C@@]32C)/C1=C(\CCC=C(C)C)C(=O)O [Fusidic Acid, reference compound]	1.9 cm	–	–	–	1.9 cm	–	–	–	–	–

Reference: PMC6271395, “Synthesis and Biological Activities of Some New (N^α-Dinicotinoyl)-bis-L-Leucyl Linear and Macrocyclic Peptides” (Molecules, 2014)
